Source: patent publication US20220291237A1 (priority 2021, published 2022)
Entries after “also recorded” stand apart in the source; their conditions may differ. Where two headings read alike, the source gives them in different places.

Key:
[1] = system: IFNG; parameters: species or system human
[2] = system: CXCL1; parameters: species or system human
[3] = system: CCL11; assay: Drugs that upregulate or downregulate iAge marker (Table 9); parameters: species or system human; settings: GENE CCL11; beneficial (lowers) or detrimental (raises) to iAge
[4] = system: TNFSF10; parameters: species or system human
[5] = system: MIG; parameters: species or system human
[6] = molecular target: aromatase (Homo sapiens, UniProt P11511); settings: in vivo; cited from earlier work
[7] = system: Mouse thoracic aortas; assay: Acetylcholine relaxation of mouse thoracic aortic rings on wire myograph after MIG; settings: increasing concentrations of recombinant mouse MIG, precontracted with U46619
Protocol: Mouse thoracic aortas were carefully dissected, and vessels were cut into small rings and mounted on an isometric wire myograph chambers (Danish Myo Technology) and subjected to a normalization protocol. Following normalization, the vessels were incubated with either PBS or different concentrations of recombinant mouse MIG (R&D systems, catalog number 492-MM). A concentration-dependent contraction curve was created by accumulative application of the prostaglandin agonist U46619. Subsequently, concentration-dependent relaxation curves of Acetylcholine were conducted on these vessels and percent relaxation calculated for each dose.

[8] = GENE IFNG, beneficial (lowers) or detrimental (raises) to iAge
[9] = GENE CXCL1, beneficial (lowers) or detrimental (raises) to iAge
[10] = GENE TNFSF10, beneficial (lowers) or detrimental (raises) to iAge
[11] = GENE CXCL9 (MIG), beneficial (lowers) or detrimental (raises) to iAge

Sequence of TNFSF10 (P50591 whole entry): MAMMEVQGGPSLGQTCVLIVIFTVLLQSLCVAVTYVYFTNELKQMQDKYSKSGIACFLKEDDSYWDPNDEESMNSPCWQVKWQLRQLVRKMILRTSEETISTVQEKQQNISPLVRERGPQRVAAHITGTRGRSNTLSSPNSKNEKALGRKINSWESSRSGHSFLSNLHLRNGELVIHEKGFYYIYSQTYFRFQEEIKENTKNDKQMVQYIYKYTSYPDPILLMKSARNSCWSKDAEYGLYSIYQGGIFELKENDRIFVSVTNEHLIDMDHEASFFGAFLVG
Sequence of aromatase (P11511 whole entry): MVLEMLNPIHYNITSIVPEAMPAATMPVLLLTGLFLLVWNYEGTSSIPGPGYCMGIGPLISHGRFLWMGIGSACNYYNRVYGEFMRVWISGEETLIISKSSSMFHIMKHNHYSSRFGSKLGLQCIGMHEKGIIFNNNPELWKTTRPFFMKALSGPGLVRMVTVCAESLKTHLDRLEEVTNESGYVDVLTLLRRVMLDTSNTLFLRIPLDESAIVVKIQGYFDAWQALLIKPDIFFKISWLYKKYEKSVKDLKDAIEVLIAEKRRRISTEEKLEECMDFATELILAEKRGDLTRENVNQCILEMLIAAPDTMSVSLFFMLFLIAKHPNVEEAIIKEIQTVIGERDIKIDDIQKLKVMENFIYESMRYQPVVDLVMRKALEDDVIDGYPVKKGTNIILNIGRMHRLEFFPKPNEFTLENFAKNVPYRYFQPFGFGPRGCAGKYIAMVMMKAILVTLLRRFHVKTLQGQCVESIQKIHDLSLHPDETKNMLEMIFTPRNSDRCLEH

Molecule: CCCCCc1cc(O)c2c(c1)OC(C)(C)[C@@H]1CCC(C)=C[C@@H]21 [Dronabinol, reference compound]
- EFFECT [1, 8]: Detrimental

Molecule: C[C@]12C=CC(=O)C=C1CC[C@@H]1[C@@H]2[C@@H](O)C[C@@]2(C)[C@H]1CC[C@]2(O)C(=O)CO [Prednisolone]
- EFFECT [2]: Detrimental

Molecule: Oc1ccc(/C=C/c2cc(O)cc(O)c2)cc1 [Resveratrol, 3,5,4′-trihydroxy-trans-stilbene]
- EFFECT [2, 9]: Detrimental
- EFFECT [3]: Beneficial
- EFFECT [1, 8]: Detrimental

Molecule: Nc1ccn([C@@H]2O[C@H](CO)[C@@H](O)[C@@H]2O)c(=O)n1 [Cytarabine]
- EFFECT [4, 10]: Beneficial

Molecule: CC1=C(/C=C/C(C)=C/C=C/C(C)=C/C(=O)O)C(C)(C)CCC1 [Tretinoin, reference compound]
- EFFECT [2, 9]: Detrimental
- EFFECT [4, 10]: Beneficial
- EFFECT [1, 8]: Detrimental

Molecule: Vitamin E
- EFFECT [4, 10]: Detrimental

Molecule: CC#C[C@]1(O)CC[C@H]2[C@@H]3CCC4=CC(=O)CCC4=C3[C@@H](c3ccc(N(C)C)cc3)C[C@@]21C [Mifepristone]
- EFFECT [2, 9]: Detrimental

Molecule: CN(Cc1cnc2nc(N)nc(N)c2n1)c1ccc(C(=O)N[C@@H](CCC(=O)O)C(=O)O)cc1 [methotrexate, Methotrexate, reference compound]
- EFFECT [2, 9]: Detrimental; also recorded: Beneficial
- EFFECT [3]: Beneficial
- EFFECT [4, 10]: Beneficial
- EFFECT [1, 8]: Detrimental

Molecule: Arsenic trioxide
- EFFECT [4, 10]: Detrimental; also recorded: Beneficial
- EFFECT [5, 11]: Beneficial

Molecule: CC(=O)CCCCn1c(=O)c2c(ncn2C)n(C)c1=O [Pentoxifylline, reference compound]
- EFFECT [4, 10]: Beneficial

Molecule: CC1=C(/C=C/C(C)=C\C=C\C(C)=C\C(=O)O)C(C)(C)CCC1 [Alitretinoin, reference compound]
- EFFECT [2, 9]: Detrimental
- EFFECT [4, 10]: Beneficial
- EFFECT [1, 8]: Detrimental

Molecule: NC(=O)c1ncn([C@@H]2O[C@H](CO)[C@@H](O)[C@H]2O)n1 [Ribavirin, reference compound]
- EFFECT [1, 8]: Detrimental

Molecule: O=O [Oxygen]
- EFFECT [4]: Beneficial
- EFFECT [1]: Beneficial

Molecule: Cn1c(=O)c2[nH]cnc2n(C)c1=O [Theophylline]
- EFFECT [1]: Detrimental

Molecule: O.O.O.O.O.O.O.O.O.O=C([O-])[C@@H]1[O][Sb]2([O-])([O][Sb]34([OH])[O][C@H]([C@H](O)CO)[C@H]([O]3)[C@H](C(=O)[O-])[O]4)[O][C@H]([C@H](O)CO)[C@@H]1[O]2.[Na+].[Na+].[Na+] [Sodium stibogluconate]
- EFFECT [1, 8]: Detrimental

Molecule: CC[C@]1(O)C[C@H]2CN(CCc3c([nH]c4ccccc34)[C@@](C(=O)OC)(c3cc4c(cc3OC)N(C=O)[C@H]3[C@@](O)(C(=O)OC)[C@H](OC(C)=O)[C@]5(CC)C=CCN6CC[C@]43[C@@H]65)C2)C1 [Vincristine]
- EFFECT [4, 10]: Beneficial
- EFFECT [5, 11]: Detrimental
- EFFECT [1, 8]: Beneficial

Molecule: CC1=C(/C=C/C(C)=C/C=C/C(C)=C\C(=O)O)C(C)(C)CCC1 [Isotretinoin]
- EFFECT [2, 9]: Detrimental
- EFFECT [4, 10]: Beneficial

Molecule: COc1cc(CNC(=O)CCCC/C=C/C(C)C)ccc1O [Capsaicin, reference compound]
- EFFECT [4, 10]: Beneficial

Molecule: CN1C(C(=O)Nc2ccccn2)=C(O)c2ccccc2S1(=O)=O [Piroxicam]
- EFFECT [2, 9]: Detrimental

Molecule: [Ag] [Silver]
- EFFECT [4, 10]: Detrimental

Molecule: C=CCc1ccc(O)c(OC)c1 [Eugenol]
- EFFECT [2, 9]: Beneficial

Molecule: O=C(CCCCCCC(=O)Nc1ccccc1)NO [Vorinostat, reference compound]
- EFFECT [4, 10]: Beneficial

Molecule: CN/C(=N/CCSCc1nc[nH]c1C)NC#N [Cimetidine]
- EFFECT [1]: Beneficial

Molecule: [Fe] [Iron]
- EFFECT [4, 10]: Beneficial

Molecule: CC(C)C[C@H](NC(=O)[C@H](Cc1ccccc1)NC(=O)c1cnccn1)B(O)O [Bortezomib, reference compound]
- EFFECT [2, 9]: Beneficial
- EFFECT [4, 10]: Detrimental

Molecule: N#Cc1ccc(C(c2ccc(C#N)cc2)n2cncn2)cc1 [Letrozole]
- reduction of estrogen levels [6]: 98%

Molecule: [Cr] [Chromium]
- EFFECT [4, 10]: Detrimental

Molecule: Nc1ncn([C@H]2C[C@H](O)[C@@H](CO)O2)c(=O)n1 [Decitabine, 5-aza-2′-deoxycytidine, reference compound]
- EFFECT [4, 10]: Beneficial

Molecule: CC(=O)[C@H]1CC[C@H]2[C@@H]3CCC4=CC(=O)CC[C@]4(C)[C@H]3CC[C@]12C [Progesterone]
- EFFECT [2, 9]: Detrimental
- EFFECT [4, 10]: Detrimental
- EFFECT [5, 11]: Detrimental

Molecule: [Gd] [Gadolinium]
- EFFECT [1, 8]: Beneficial

Molecule: C=CC[C@@H]1/C=C(\C)C[C@H](C)C[C@H](OC)[C@H]2O[C@@](O)(C(=O)C(=O)N3CCCC[C@H]3C(=O)O[C@H](/C(C)=C/[C@@H]3CC[C@@H](O)[C@H](OC)C3)[C@H](C)[C@@H](O)CC1=O)[C@H](C)C[C@@H]2OC [Tacrolimus]
- EFFECT [3]: Beneficial

Molecule: NCCc1c[nH]cn1 [Histamine, reference compound]
- EFFECT [1]: Detrimental

Molecule: COc1cccc2c1C(=O)c1c(O)c3c(c(O)c1C2=O)C[C@@](O)(C(=O)CO)C[C@@H]3O[C@H]1C[C@H](N)[C@H](O)[C@H](C)O1 [Doxorubicin]
- EFFECT [4, 10]: Beneficial

Molecule: O=C([O-])CC([S-])C(=O)[O-].[Au+].[Na+].[Na+] (stereo not drawn) [Sodium aurothiomalate]
- EFFECT [2, 9]: Detrimental

Molecule: Nc1ccn([C@@H]2O[C@H](CO)[C@@H](O)C2(F)F)c(=O)n1 [Gemcitabine]
- EFFECT [2, 9]: Beneficial

Molecule: O=S(=O)([O-])[O-].[Zn+2] [Zinc sulfate]
- EFFECT [1]: Beneficial

Molecule: Oc1cccc2cccnc12 [Oxyquinoline]
- EFFECT [4]: Beneficial

Molecule: N.N.[Cl][Pt][Cl] [Cisplatin]
- EFFECT [4, 10]: Beneficial

Molecule: O=c1[nH]cc(F)c(=O)[nH]1 [Fluorouracil, reference compound]
- EFFECT [4, 10]: Beneficial

Molecule: CC(=O)N[C@@H](CS)C(=O)O [Acetylcysteine, reference compound]
- EFFECT [4, 10]: Detrimental

Molecule: CC(=O)Nc1ccc(O)cc1 [Acetaminophen]
- EFFECT [4]: Detrimental

Molecule: [Zn] [Zinc]
- EFFECT [3]: Detrimental
- EFFECT [1, 8]: Beneficial

Molecule: CC1=C(/C=C/C(C)=C/C=C/C(C)=C/C=C/C=C(C)/C=C/C=C(C)/C=C/C2=C(C)CCCC2(C)C)C(C)(C)CCC1 [Beta carotene]
- EFFECT [4]: Beneficial
- EFFECT [5]: Detrimental

Molecule: [Se] [Selenium]
- EFFECT [2, 9]: Beneficial
- EFFECT [4, 10]: Detrimental
- EFFECT [5, 11]: Beneficial

B1: MIG: recombinant mouse MIG (R&D systems, catalog number 492-MM) (protein, UniProt Q07325 23-125, looked up)
C-X-C motif chemokine 9: TPVVRKGRCSCISTNQGTIHLQSLKDLKQFAPSPSCEKIEIIATLKNGVQTCLNPDSADVKELIKKWEKQVSQKKKQKNGKKHQKKKVLKVRKSQRSRQKKTT
- effect on vasorelaxation to Acetylcholine [7]: impairs vascular function
